# Source: ChEMBL document CHEMBL5352396, “Synthesis and biological evaluation of novel FiVe1 derivatives as potent and selective agents for the treatment of mesenchymal cancers” (Eur J Med Chem, 2022)
# Activity calls are given as the source filed them. No cut-off for these calls is given here.
# Key:
# [1] = AUC (0 to last) in mouse at 25 mg/kg, po by LC-MS/MS analysis; format: ADME, organism-based; design: dose 25 mg/kg, route po; conditions: in vivo
# [2] = AUC (0 to infinity) in mouse at 25 mg/kg, po by LC-MS/MS analysis; format: ADME, organism-based; design: dose 25 mg/kg, route po; conditions: in vivo
# [3] = Half life in mouse at 25 mg/kg, po by LC-MS/MS analysis; format: ADME, organism-based; conditions: in vivo
# [4] = Tmax in mouse at 25 mg/kg, po by LC-MS/MS analysis; format: ADME, organism-based; conditions: in vivo
# [5] = Cmax in mouse at 25 mg/kg, po by LC-MS/MS analysis; format: ADME, organism-based; design: dose 25 mg/kg, route po; conditions: in vivo
# [6] = Kinetic solubility of the compound in DPBS buffer at pH 7.4 incubated for 16 hrs under shaking condition by HPLC analysis; format: physicochemical; conditions: read-out: Kinetic_solubility
# Vimentin (Homo sapiens) [7] = molecular target: Vimentin (Homo sapiens) (UniProt P08670); test: Induction of Vimentin phosphorylation in human HT-1080 cells at 1 uM incubated for 24 hrs by Western blot analysis; format: cell-based; conditions: filed as activator
# Vimentin (Homo sapiens) [8] = molecular target: Vimentin (Homo sapiens) (UniProt P08670); test: Induction of Vimentin phosphorylation in human RD cells at 1 uM incubated for 24 hrs by Western blot analysis; format: cell-based; conditions: filed as activator
# Vimentin (Homo sapiens) [9] = molecular target: Vimentin (Homo sapiens) (UniProt P08670); test: Induction of Vimentin phosphorylation in human GCT cells at 1 uM incubated for 24 hrs by Western blot analysis; format: cell-based; conditions: filed as activator
# Vimentin (Homo sapiens) [10] = molecular target: Vimentin (Homo sapiens) (UniProt P08670); test: Induction of Vimentin phosphorylation in human HT-1080 cells at 100 nM incubated for 24 hrs by Western blot analysis; format: cell-based
# Vimentin (Homo sapiens) [11] = molecular target: Vimentin (Homo sapiens) (UniProt P08670); test: Induction of Vimentin phosphorylation in human RD cells at 100 nM incubated for 24 hrs by Western blot analysis; format: cell-based
# Vimentin (Homo sapiens) [12] = molecular target: Vimentin (Homo sapiens) (UniProt P08670); test: Induction of Vimentin phosphorylation in human GCT cells at 100 nM incubated for 24 hrs by Western blot analysis; format: cell-based
# [13] = Metabolic stability in CD-1 mouse liver microsomes assessed as half life at 100 uM measured upto 60 mins in presence of NADPH by LC-MS/MS analysis; format: ADME, Microsome; conditions: mouse, microsomes, 1 h, 100 µM
# [14] = Metabolic stability in CD-1 mouse liver microsomes assessed as intrinsic clearance at 100 uM measured upto 60 mins in presence of NADPH by LC-MS/MS analysis; format: ADME, Microsome; conditions: mouse, microsomes, 1 h, 100 µM
# [15] = Metabolic stability in CD-1 mouse liver microsomes assessed as parent compound remaining at 100 uM measured after 60 mins in presence of NADPH by LC-MS/MS analysis; format: ADME, Microsome; conditions: read-out: Stability
# [16] = Drug metabolism in mouse hepatocytes assessed as dealkylation by measuring M1 metabolite formation; format: ADME, cell-based, Hepatocyte
# [17] = Drug metabolism in mouse hepatocytes assessed as dealkylation and oxygenation by measuring M2 metabolite formation; format: ADME, cell-based, Hepatocyte
# [18] = Drug metabolism in mouse hepatocytes assessed as dealkylation by measuring M3 metabolite formation; format: ADME, cell-based, Hepatocyte
# [19] = Drug metabolism in mouse hepatocytes assessed as dealkylation by measuring M4 metabolite formation; format: ADME, cell-based, Hepatocyte
# [20] = Drug metabolism in mouse hepatocytes assessed as oxygenation by measuring M5 metabolite formation; format: ADME, cell-based, Hepatocyte
# [21] = Drug metabolism in mouse hepatocytes assessed as oxygenation by measuring M6 metabolite formation; format: ADME, cell-based, Hepatocyte
# [22] = Drug metabolism in mouse hepatocytes assessed as oxygenation by measuring M7 metabolite formation; format: ADME, cell-based, Hepatocyte
# HT-1080 = test: cells; conditions: Homo sapiens, HT-1080, 72 h
# RD = test: cells; conditions: Homo sapiens, 72 h
# GCT = test: cells; conditions: Homo sapiens, 72 h
# MCF7 = test: cells; conditions: Homo sapiens, MCF7, 72 h
# [23] = AUC (0 to last) in mouse at 10 mg/kg, po by LC-MS/MS analysis; format: ADME, organism-based; design: dose 10 mg/kg, route po; conditions: in vivo
# [24] = AUC (0 to last) in mouse at 1 mg/kg, ip by LC-MS/MS analysis; format: ADME, organism-based; design: dose 1 mg/kg, route ip; conditions: in vivo
# [25] = AUC (0 to infinity) in mouse at 10 mg/kg, po by LC-MS/MS analysis; format: ADME, organism-based; design: dose 10 mg/kg, route po; conditions: in vivo
# [26] = AUC (0 to infinity) in mouse at 1 mg/kg, ip by LC-MS/MS analysis; format: ADME, organism-based; design: dose 1 mg/kg, route ip; conditions: in vivo
# [27] = Half life in mouse at 10 mg/kg, po by LC-MS/MS analysis; format: ADME, organism-based; conditions: in vivo
# [28] = Half life in mouse at 1 mg/kg, ip by LC-MS/MS analysis; format: ADME, organism-based; conditions: in vivo
# [29] = Tmax in mouse at 10 mg/kg, po by LC-MS/MS analysis; format: ADME, organism-based; conditions: in vivo
# [30] = Tmax in mouse at 1 mg/kg, ip by LC-MS/MS analysis; format: ADME, organism-based; conditions: in vivo
# [31] = Tlast in mouse at 10 mg/kg, po by LC-MS/MS analysis; format: ADME, organism-based; conditions: in vivo
# [32] = Tlast in mouse at 1 mg/kg, ip by LC-MS/MS analysis; format: ADME, organism-based; conditions: in vivo
# [33] = Cmax in mouse at 1 mg/kg, ip by LC-MS/MS analysis; format: ADME, organism-based; design: dose 1 mg/kg, route ip; conditions: in vivo
# [34] = Cmax in mouse at 10 mg/kg, po by LC-MS/MS analysis; format: ADME, organism-based; design: dose 10 mg/kg, route po; conditions: in vivo
# [35] = Oral bioavailability in mouse at 10 mg/kg by LC-MS/MS analysis; format: ADME, organism-based; conditions: in vivo
# Chain of Vimentin (Homo sapiens) (P08670 whole entry): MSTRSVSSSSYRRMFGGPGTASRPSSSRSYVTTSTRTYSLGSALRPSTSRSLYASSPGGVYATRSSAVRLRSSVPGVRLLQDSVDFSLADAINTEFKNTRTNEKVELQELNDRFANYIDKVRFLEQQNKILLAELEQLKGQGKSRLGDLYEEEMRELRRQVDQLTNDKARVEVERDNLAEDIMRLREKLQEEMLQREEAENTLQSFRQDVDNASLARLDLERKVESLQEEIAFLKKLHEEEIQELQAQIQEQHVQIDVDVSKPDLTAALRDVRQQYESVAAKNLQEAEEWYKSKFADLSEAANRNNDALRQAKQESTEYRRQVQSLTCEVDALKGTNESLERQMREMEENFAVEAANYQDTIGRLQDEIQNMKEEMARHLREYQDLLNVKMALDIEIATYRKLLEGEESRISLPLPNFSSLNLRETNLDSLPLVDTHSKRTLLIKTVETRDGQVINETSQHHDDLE
smiles,measurement,setting,value
Clc1cccc(N2CCN(c3cnnc4c(Cl)cccc34)CC2)c1,AUC(0-t),[1],310 ng·h/mL
same,AUC(0-inf),[2],339 ng·h/mL
same,half-life,[3],274 min
same,Tmax,[4],30 min
same,Cmax,[5],110 ng/mL
same,solubility kinetic at 16 h,[6],< 1 µM
same,Activity,Vimentin (Homo sapiens) [7],Active
same,Activity,Vimentin (Homo sapiens) [8],Active
same,Activity,Vimentin (Homo sapiens) [9],Active
same,Activity,Vimentin (Homo sapiens) [10],inactive
same,Activity,Vimentin (Homo sapiens) [11],inactive
same,Activity,Vimentin (Homo sapiens) [12],inactive
same,t1/2,[13],11.9 min
same,microsomal intrinsic clearance,[14],116.1 µL/min/mg
same,"remaining at 1 h, 100 µM",[15],3.2%
same,Drug metabolism,[16],Metabolite_Detected
same,Drug metabolism,[17],Metabolite_Detected
same,Drug metabolism,[18],Metabolite_Detected
same,Drug metabolism,[19],Metabolite_Detected
same,Drug metabolism,[20],Metabolite_Detected
same,Drug metabolism,[21],Metabolite_Detected
same,Drug metabolism,[22],Metabolite_Detected
same,IC50,HT-1080,1560 nM
same,IC50,RD,3100 nM
same,IC50,GCT,1690 nM
same,IC50,MCF7,> 20000 nM
COc1cc(Cl)cc(N2CCN(c3cnnc4c(Cl)cccc34)CC2)c1,AUC(0-t),[23],371 ng·h/mL
same,AUC(0-t),[24],208 ng·h/mL
same,AUC(0-inf),[25],534 ng·h/mL
same,AUC(0-inf),[26],211 ng·h/mL
same,half-life,[27],281 min
same,half-life,[28],35.4 min
same,Tmax,[29],40.2 min
same,Tmax,[30],15 min
same,Tlast,[31],8 h
same,Tlast,[32],18 h
same,Cmax,[33],197 ng/mL
same,Cmax,[34],155 ng/mL
same,Activity,Vimentin (Homo sapiens) [10]; filed as activator,Active
same,Activity,Vimentin (Homo sapiens) [11]; filed as activator,Active
same,Activity,Vimentin (Homo sapiens) [12]; filed as activator,Active
same,F,[35],25%
same,t1/2,[13],1.7 min
same,microsomal intrinsic clearance,[14],805.3 µL/min/mg
same,"remaining at 1 h, 100 µM",[15],0%
same,IC50,HT-1080,44 nM
same,IC50,RD,61 nM
same,IC50,GCT,49 nM
same,IC50,MCF7,11200 nM
